Measured values: patent US12065446B2, “Inhibitors of Bruton's tyrosine kinase and method of their use” (JANSSEN PHARMACEUTICA NV, priority 2015, dated 2024)

Target: unphosphorylated-BTK kinase domain (UP-BTK), GST-tagged human BTK (389-659aa) (Homo sapiens (Human), UniProt Q06187)
Assay: BTK kinase lanthascreen binding assay
Conditions: competition with 50 nM Tracer 236, 60 minutes; pIC50 = negative log of the IC50 in molar
Description: BTK kinase lanthascreen binding assay: A BTK kinase lanthascreen binding assay monitors compound binding to unphosphorylated-BTK kinase domain (UP-BTK), by competing with a fluorescent labeled tracer. […] Data were analyzed using Xlfit™ version 5.3 from ID Business Solutions (Guildford), Microsoft Excel add-in. pIC50 refers to the negative log of the IC50 in molar.

unphosphorylated-BTK kinase domain (UP-BTK), GST-tagged human BTK (389-659aa), sequence (Q06187 389-659): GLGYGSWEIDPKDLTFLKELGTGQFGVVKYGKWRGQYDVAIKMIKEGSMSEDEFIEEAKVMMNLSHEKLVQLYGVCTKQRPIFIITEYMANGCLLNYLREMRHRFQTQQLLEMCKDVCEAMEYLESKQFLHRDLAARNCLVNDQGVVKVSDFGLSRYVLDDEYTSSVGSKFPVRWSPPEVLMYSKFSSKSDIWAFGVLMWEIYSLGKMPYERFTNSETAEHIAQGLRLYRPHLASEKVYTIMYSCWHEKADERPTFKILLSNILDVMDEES

C=CC(=O)N[C@@H]1CC[C@@H](NC(=O)c2sc3nccc4c3c2NC(=O)N4c2ccc(Oc3ccccc3)nc2)C1 (racemic) [Example 188, N-((1RS, 3RS)-3-Acrylamidocyclopentyl)-4-oxo-5-(6-phenoxypyridin-3-yl)-4,5-dihydro-3H-1-thia-3,5,8-triazaacenaphthylene-2-carboxamide]
BTK_I_binding pIC50: 7.11
